Measured values as given in US9956204B2, “Composition for exterminating scuticociliates in fish including mebendazole” (NATIONAL INSTITUTE OF FISHERIES SCIENCE, priority 2016, dated 2018).

Assays:
scuticociliates [1] = experiment: Scuticociliates extermination effect of candidate substances in MEM medium; type: cell-based; conditions: MEM medium
Description: CHSE-214 cell line into which scuticociliates were inoculated was cultured in advance. The CHSE-214 cell line was cultured in an incubator using an MEM medium at 22° C. Scuticociliates inoculated into the cell line proliferated for 3 days by which the number reaches to be capable of analyzing in vitro anti-scuticociliates effect. Scuticociliates that feed on the cell line and sufficiently grow were mixed with the candidate substance and the activity of scuticociliates was measured.
In order to analyze the antiparasitic activity of the above 19 types of candidate substances of scuticociliates extermination drugs, scuticociliates were cultured for 3 days, and 100 μl (1×10^5) was dispensed into each well of 96 wells. The candidate substances were diluted by each concentration and the final volume was dispensed into 100 μl. Thereafter, the two were mixed and finally made into 200 μl.

scuticociliates [2] = experiment: Scuticociliates extermination effect of candidate substances in seawater medium; type: cell-based; conditions: seawater medium, 4 hour
Description: For this, scuticociliates were cultured in CHSE-214 cell line (using MEM medium), and then scuticociliates were collected and centrifuged with sterilized seawater or artificial seawater (20‰) to replace them with a seawater medium. Each of 100 μl (1×10^5) was dispensed into each well of 96 wells, followed by further culture for 30 minutes. The candidate substances diluted in seawater to have a volume of 100 μl per each concentration were mixed with scuticociliates to have the final volume of 200 μl and cultured for 4 hour.

| SMILES | Survival or Death of scuticociliates (activity and shape, microscope) (scuticociliates [1]; Dosage 500 ppm) | Survival or Death of scuticociliates (activity and shape, microscope) (scuticociliates [1]; Dosage 600 ppm) | Survival or Death of scuticociliates (activity and shape, microscope) (scuticociliates [1]; Dosage 700 ppm) | Survival or Death of scuticociliates (activity and shape, microscope) (scuticociliates [1]; Dosage 800 ppm) | Survival or Death of scuticociliates (activity and shape, microscope) (scuticociliates [1]; Dosage 900 ppm) | Survival or Death of scuticociliates (activity and shape, microscope) (scuticociliates [1]; Dosage 1000 ppm) | Survival or Death of scuticociliates (activity and shape, microscope) (scuticociliates [1]; Dosage 2000 ppm) | Survival or Death of scuticociliates (activity and shape, microscope) (scuticociliates [2]; Dosage 500 ppm) | Survival or Death of scuticociliates (activity and shape, microscope) (scuticociliates [2]; Dosage 1000 ppm) | Survival or Death of scuticociliates (activity and shape, microscope) (scuticociliates [2]; Dosage 1200 ppm) | Survival or Death of scuticociliates (activity and shape, microscope) (scuticociliates [2]; Dosage 1400 ppm) | Survival or Death of scuticociliates (activity and shape, microscope) (scuticociliates [2]; Dosage 1500 ppm) | Survival or Death of scuticociliates (activity and shape, microscope) (scuticociliates [2]; Dosage 2000 ppm) | Survival or Death of scuticociliates (activity and shape, microscope) (scuticociliates [1]; Dosage 10 ppm) | Survival or Death of scuticociliates (activity and shape, microscope) (scuticociliates [1]; Dosage 50 ppm) | Survival or Death of scuticociliates (activity and shape, microscope) (scuticociliates [1]; Dosage 100 ppm) | Survival or Death of scuticociliates (activity and shape, microscope) (scuticociliates [1]; Dosage 200 ppm) | Survival or Death of scuticociliates (activity and shape, microscope) (scuticociliates [1]; Dosage 400 ppm) | Survival or Death of scuticociliates (activity and shape, microscope) (scuticociliates [2]; Dosage 800 ppm) | Survival or Death of scuticociliates (activity and shape, microscope) (scuticociliates [2]; Dosage 50 ppm) | also measured |
| --- | --- | --- | --- | --- | --- | --- | --- | --- | --- | --- | --- | --- | --- | --- | --- | --- | --- | --- | --- | --- | --- |
| O=[N+]([O-])NC1=NCCN1Cc1ccc(Cl)nc1 [Imidacloprid] | Survival | Survival | Survival | Survival | Δ | Δ | Death | Survival | Δ | Δ | Death | Death | Death | – | – | – | – | – | – | – | Survival or Death of scuticociliates (activity and shape, microscope) (scuticociliates [1]; Dosage 5000 ppm): Death; Survival or Death of scuticociliates (activity and shape, microscope) (scuticociliates [2]; Dosage 2500 ppm): Death |
| CC[C@H](C)[C@H]1O[C@]2(C=C[C@@H]1C)C[C@@H]1C[C@@H](C/C=C(\C)[C@@H](O[C@H]3C[C@H](OC)[C@@H](O[C@H]4C[C@H](OC)[C@@H](O)[C@H](C)O4)[C@H](C)O3)[C@@H](C)/C=C/C=C3\CO[C@@H]4[C@H](O)C(C)=C[C@@H](C(=O)O1)[C@]34O)O2 [Abamectin] | Death | – | – | – | – | – | – | Survival | Death | – | – | Death | Death | Survival | Survival | Survival | Δ | Death | Death | – | Survival or Death of scuticociliates (activity and shape, microscope) (scuticociliates [1]; Dosage 20 ppm): Survival; Survival or Death of scuticociliates (activity and shape, microscope) (scuticociliates [1]; Dosage 150 ppm): Survival; Survival or Death of scuticociliates (activity and shape, microscope) (scuticociliates [2]; Dosage 900 ppm): Death |
| O=C(OCc1ccccc1)c1ccccc1 [Benzyl benzonate] | Survival | Survival | – | Δ | – | Δ | – | Δ | – | – | – | – | – | Survival | Survival | Survival | Survival | – | Death | Survival | Survival or Death of scuticociliates (activity and shape, microscope) (scuticociliates [2]; Dosage 100 ppm): Survival; Survival or Death of scuticociliates (activity and shape, microscope) (scuticociliates [2]; Dosage 600 ppm): Death; Survival or Death of scuticociliates (activity and shape, microscope) (scuticociliates [2]; Dosage 700 ppm): Death |
| Nc1cc(C(Cl)=C(Cl)Cl)c(S(N)(=O)=O)cc1S(N)(=O)=O [Clorsulon] | Survival | – | Survival | Survival | Δ | Δ | Death | Survival | Survival | Survival | Survival | Death | – | – | – | – | – | – | – | Survival | Survival or Death of scuticociliates (activity and shape, microscope) (scuticociliates [1]; Dosage 4000 ppm): Death; Survival or Death of scuticociliates (activity and shape, microscope) (scuticociliates [2]; Dosage 250 ppm): Survival |
| CCCSc1ccc2nc(NC(=O)OC)[nH]c2c1 [Albendazole] | Survival | Survival | Survival | Δ | Death | Death | – | Survival | Death | – | – | – | – | Survival | Survival | Survival | Survival | Survival | Δ | Survival | Survival or Death of scuticociliates (activity and shape, microscope) (scuticociliates [1]; Dosage 300 ppm): Survival; Survival or Death of scuticociliates (activity and shape, microscope) (scuticociliates [2]; Dosage 10 ppm): Survival; Survival or Death of scuticociliates (activity and shape, microscope) (scuticociliates [2]; Dosage 100 ppm): Survival; Survival or Death of scuticociliates (activity and shape, microscope) (scuticociliates [2]; Dosage 200 ppm): Survival; Survival or Death of scuticociliates (activity and shape, microscope) (scuticociliates [2]; Dosage 300 ppm): Survival; Survival or Death of scuticociliates (activity and shape, microscope) (scuticociliates [2]; Dosage 400 ppm): Survival; Survival or Death of scuticociliates (activity and shape, microscope) (scuticociliates [2]; Dosage 600 ppm): Survival; Survival or Death of scuticociliates (activity and shape, microscope) (scuticociliates [2]; Dosage 700 ppm): Survival; Survival or Death of scuticociliates (activity and shape, microscope) (scuticociliates [2]; Dosage 900 ppm): Death |
